Common to all, as to assay type: biochemical
For assay [1], the target named is T1, dipeptidyl peptidase I (DPPI) (Homo sapiens, UniProt P53634).
T1 construct: made in house; host or cells: Hi5 insect cells (baculovirus)
The assay is described as follows: DPPI assay with label-free 20-mer peptide substrate, mass spectrometry (RapidFire, SIM), screening of test compounds. The conditions noted are these: for IC50: 20-mer peptide substrate (SEQ ID NO:1) 20 μM, about 2 nM DPPI, 27° C., 60 min, semi-log plot analysis, read-out: IC50 of DPPI inhibition; for effect on DPPI activity in the reaction with the 20-mer substrate: 20-mer peptide substrate, mass spectrometry. The protocol:
(§1) FIG. 2. Evaluating the DPPI-modulating activity with two test compounds using a dipeptide substrate (A) and using a 20-mer peptide substrate (B). (A) About 0.4 nM of DPP1 and about 10 μM of dipeptide substrate GR-α-methylcoumarin were used in a rate-based format and monitored with fluorescence at EM=460 nm and EX=380 nm. (B) About 2 nM of DPPI and 20 μM of the 20-mer peptide substrate […] (SEQ ID NO:1) were used in a reaction and monitored with a mass spectrometry system. 2-(piperidin-1-ylcarbonyl)phenol is represented by solid squares and 2-(piperidin-1-ylcarbonyl)aniline is represented by solid circles. R^2-values is >0.95.
When a candidate compound is identified, the IC50 of the DPPI inhibition by the candidate compound is calculated using the formula (II):
[formula] wherein • Si is net substrate turnover signal of sample • So is net substrate turnover signal of positive control • Smin is net am signal of negative control • I is concentration of a candidate compound wherein a positive control is a reaction without any test compound and a negative control is a reaction without DPPI or substrate.
About 2 nM of DPPI was incubated with about 0.5, 1, 2, 4, 8, 16, 32, 64, 90, 128, 150 μM of the 20-mer substrate in the reaction buffer of 50 mM HEPES (pH 7.0), 100 mM NaCl, 0.005% Tween-20, and 2 mM of DTT or GSH. The reaction was incubated at about 27° C. and terminated with about 1/10 volume of 2% trifluoroacetic acid at multiple time points at 0, 2, 5, 10, 20, 30, 45, 60, 75, 90, and 120 mins. An aliquot of about 10 μl of the quenched reaction was used for detecting the substrate turnover by RapidFire (BioTrove, Woburn, Mass.) with a C4 cartridge. The reaction was loaded onto the cartridge, which was equilibrated with the stationary phase of 0.1% formic acid+0.02% TFA and developed with the mobile phase of 90% MeCN+0.1% formic acid+0.02% TFA at about 1 ml per min. The 20-mer substrate at SIM 1112 amu (atomic mass unit) and the corresponding 18-mer product at SIM 1019 were monitored using Agilent 1100 series LCMSD (Santa Clara, Calif.) in the positive ion mode monitoring.
Two fragment compounds, 2-(piperidin-1-ylcarbonyl)phenol and 2-(piperidin-1-ylcarbonyl)aniline were evaluated for their activity to modulate DPPI. A dilution series of the compounds of about 0.1 mM to about 100 mM was made in 100% DMSO. About one μl of a test compound and about 8 μl of about 3.75 nM DDP-1 were added to a 384-well polypropylene plate (Greiner Bio-One North America Inc., Monroe, N.C.). The proteolytic reaction was initiated by the addition of about 1 μl of 200 μM substrate. […] An aliquot of about 10 μl of the quenched reaction was analyzed by RapidFire™ as described in Examples 3 and 4.

For assay [2], the target named is T1, dipeptidyl peptidase I (DPPI). In words: Rate-based DPPI assay with dipeptide substrate GR-alpha-methylcoumarin, fluorescence, test compounds. The conditions noted are these: dipeptide substrate GR-α-methylcoumarin about 10 μM, about 0.4 nM DPPI, compound up to 10 mM. The procedure:
as §1
The DPPI activity was analyzed with either the dipeptide substrate, Gly-Arg, labeled with alpha-methylcoumarin (AMC), or the 20-mer peptide substrate of SEQ ID NO: 1. […] The fluorescence (Ex=380 nm, EM=460 nm) was monitored continuously from about 0 to 10 mins, using a Safire II (Tecan, Switzerland) to determine the DPPI activity. […]
Two fragment compounds, 2-(piperidin-1-ylcarbonyl)phenol and 2-(piperidin-1-ylcarbonyl)aniline were evaluated for their activity to modulate DPPI. […] An aliquot of about 10 μl of the quenched reaction was analyzed by RapidFire™ as described in Examples 3 and 4.

Assay [3] shares this target. The assay is described as follows: Initial velocity analysis of DPPI with the 20-mer substrate, mass spectrometry. Particulars: 20-mer as DPPI substrate, about 2 nM DPPI, pH 7.0, about 27° C. The protocol:
(§2) FIG. 1. Initial velocity analysis for DPP1 kinetic constant in reaction with a 20-mer substrate (A) and a dipeptide substrate (B). (A) About 2 nM of DPPI was used in the reaction with the 20-mer substrate of […] (SEQ ID NO:1) and the reaction was monitored using a mass spectrometry system. (B) About 0.4 nM of DPP1 was used in the reaction with the dipeptide substrate of GR-α-methylcoumarin and the reaction was monitored using a rate-based format monitoring fluorescence at EM=460 nm and EX=380 nm. Initial rates are taken from kinetic data where less than 7% substrate turnover was achieved.
(§3) Once the rate of the substrate turnover under the initial velocity condition, the kinetic constants for DPPI and the peptide substrate are calculated using the following formula (I): Y=VMAX((X+Et+KM)−((((Et+X+KM)^2)−(4XEt))^0.5))/(2Et) wherein • Y is concentration of substrate turnover • X is substrate concentration • Et is DPPI concentration • KM is substrate concentration at ½ VMAX • VMAX is substrate turnover at substrate saturation
About 2 nM of DPPI was incubated with about 0.5, 1, 2, 4, 8, 16, 32, 64, 90, 128, 150 μM of the 20-mer substrate in the reaction buffer of 50 mM HEPES (pH 7.0), 100 mM NaCl, 0.005% Tween-20, and 2 mM of DTT or GSH. […]

Assay [4] shares this target. In words: Initial velocity analysis of DPPI with the dipeptide substrate Gly-Arg-AMC, fluorescence. The conditions noted are these: dipeptide GR-AMC as DPPI substrate, about 0.4 nM DPPI, pH 7.0. The procedure: as §2, §3
The DPPI activity was analyzed with either the dipeptide substrate, Gly-Arg, labeled with alpha-methylcoumarin (AMC), or the 20-mer peptide substrate of SEQ ID NO: 1. For the dipeptide substrate, about 0.4 nM of DPPI was incubated with about 1, 2, 5, 10, 25, 50, 100, 150, 300, 600 μM of the dipeptide substrate in 10 ul of reaction buffer of 50 mM Hepes (pH 7.0), 100 mM NaCl, 0.005% Tween-20, and 2 mM of DTT or GSH. The fluorescence (Ex=380 nm, EM=460 nm) was monitored continuously from about 0 to 10 mins, using a Safire II (Tecan, Switzerland) to determine the DPPI activity. The condition for the 20-mer peptide substrate was the same as described above.

Residues, ends and D or L forms follow the SMILES beside them. No end group written: not given here. *: point of attachment. AMC = Cc1cc(=O)oc2cc(N*)ccc12

T1 sequence (P53634 25-134 limits assumed, species assumed): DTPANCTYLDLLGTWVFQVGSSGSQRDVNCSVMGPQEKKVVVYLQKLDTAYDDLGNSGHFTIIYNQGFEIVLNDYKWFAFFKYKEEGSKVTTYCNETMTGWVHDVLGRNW
T1 sequence (P53634 231-394 limits assumed, species assumed): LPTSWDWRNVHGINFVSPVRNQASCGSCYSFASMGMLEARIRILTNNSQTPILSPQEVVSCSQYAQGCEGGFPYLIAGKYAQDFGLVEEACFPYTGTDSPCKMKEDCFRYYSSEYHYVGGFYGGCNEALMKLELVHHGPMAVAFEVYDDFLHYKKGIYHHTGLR
T1 sequence (P53634 395-463 limits assumed, species assumed): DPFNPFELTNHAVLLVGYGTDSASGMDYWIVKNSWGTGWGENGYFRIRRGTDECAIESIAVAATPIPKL

As usually defined, the IC50 is the concentration that inhibits the measured activity by half. For `O=C(c1ccccc1O)N1CCCCC1` [2-(piperidin-1-ylcarbonyl)phenol], in assay [1], the IC50 was roughly 100 µM and the “effect on DPPI activity in the reaction with the 20-mer substrate” value is given as “modulated the DPPI activity in a concentration dependent manner”. For the same compound, the “effect on DPPI activity in the reaction with the dipeptide substrate” value in assay [2] was “neither compound, even in high concentration of 10 mM, affected the DPPI activity”.

The term Km denotes the concentration of substrate that gives half-maximal velocity. GEIIGGTECKPHSRPYMAYL [20-mer]: the Km in assay [3] turned out to be 62 µM.

Turning to `Nc1ccccc1C(=O)N1CCCCC1` [2-(piperidin-1-ylcarbonyl)aniline], in assay [1], the IC50 is roughly 1000 µM and the “effect on DPPI activity in the reaction with the 20-mer substrate” value is listed as “modulated the DPPI activity in a concentration dependent manner”. Also, in assay [2], the “effect on DPPI activity in the reaction with the dipeptide substrate” value is “neither compound, even in high concentration of 10 mM, affected the DPPI activity”.

For the compound `Cc1cc(=O)oc2cc(NC(=O)[C@H](CCCNC(=N)N)NC(=O)CN)ccc12` [Dipeptide, Gly-Arg, labeled with alpha-methylcoumarin (AMC)] (H-Gly-Arg-{AMC}), in assay [4], the “2nd order rate constant” value came out at 1.48e+06 M⁻¹ s⁻¹, the Km stood at 64 µM and the kcat is reported as 5667 Mmin^−1.
